Test results reported in publication PMC8983078 (Drug Discovery Today, 2022).
Counter-ions that a name gives are not always drawn. Like-named read-outs stand apart in the source and are kept apart here.

Experiments:
[1] = cited from earlier work
[2] = target: T1, hERG channel (Homo sapiens, UniProt Q12809); details: cited from earlier work
[3] = tested on: phospholipidosis (PLD); details: read-out: PLD EC50; NPC qHTS in-house database; cited from earlier work
[4] = tested on: SARS-CoV-1; details: cited from earlier work
[5] = tested on: Middle East respiratory syndrome (MERS)-CoV; details: cited from earlier work
[6] = target: T1, hERG channel
[7] = tested on: COVID-19; details: patients hospitalized with COVID-19, observational; cited from earlier work
[8] = tested on: SARS-CoV-2; details: cited from earlier work; for SARS-CoV-2 CPE EC50: Vero E6 cells infected for 72 h, NPC qHTS in-house database
[9] = tested on: autophagy; details: in words; screening data; cited from earlier work
[10] = tier stated per drug in the text, based on hERG curve rank

T1 sequence (Q12809 whole entry): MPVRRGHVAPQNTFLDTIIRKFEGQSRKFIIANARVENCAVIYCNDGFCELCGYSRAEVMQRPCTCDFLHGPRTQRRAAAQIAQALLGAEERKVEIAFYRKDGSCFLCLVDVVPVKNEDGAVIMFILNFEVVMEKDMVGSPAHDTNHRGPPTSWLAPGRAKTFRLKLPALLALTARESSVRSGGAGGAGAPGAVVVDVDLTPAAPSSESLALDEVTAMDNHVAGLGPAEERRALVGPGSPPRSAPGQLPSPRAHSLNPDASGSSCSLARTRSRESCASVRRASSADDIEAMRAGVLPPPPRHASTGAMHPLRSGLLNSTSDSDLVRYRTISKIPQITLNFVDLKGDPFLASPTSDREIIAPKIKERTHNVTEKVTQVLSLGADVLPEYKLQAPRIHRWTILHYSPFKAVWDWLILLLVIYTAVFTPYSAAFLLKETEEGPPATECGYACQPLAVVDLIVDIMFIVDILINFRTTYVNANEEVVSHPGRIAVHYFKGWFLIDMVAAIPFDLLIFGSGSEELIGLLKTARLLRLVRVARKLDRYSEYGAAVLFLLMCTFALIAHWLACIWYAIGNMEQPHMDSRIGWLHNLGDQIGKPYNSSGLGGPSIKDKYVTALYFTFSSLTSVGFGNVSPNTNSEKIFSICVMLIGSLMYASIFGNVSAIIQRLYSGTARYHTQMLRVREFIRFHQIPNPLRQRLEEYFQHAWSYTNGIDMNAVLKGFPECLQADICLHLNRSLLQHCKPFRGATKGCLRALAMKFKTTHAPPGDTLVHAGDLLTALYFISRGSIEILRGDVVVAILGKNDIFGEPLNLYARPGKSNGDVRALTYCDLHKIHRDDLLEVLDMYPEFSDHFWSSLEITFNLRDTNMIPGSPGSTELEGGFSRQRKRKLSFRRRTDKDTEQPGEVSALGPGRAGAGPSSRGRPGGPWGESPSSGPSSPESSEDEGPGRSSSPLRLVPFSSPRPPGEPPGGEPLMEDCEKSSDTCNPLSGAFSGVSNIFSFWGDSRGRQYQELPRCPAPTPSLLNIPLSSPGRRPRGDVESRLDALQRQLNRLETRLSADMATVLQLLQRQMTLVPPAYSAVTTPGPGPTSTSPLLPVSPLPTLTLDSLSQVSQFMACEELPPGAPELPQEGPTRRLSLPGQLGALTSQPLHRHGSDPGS

For COc1ccc(CCN2CCC(Nc3nc4ccccc4n3Cc3ccc(F)cc3)CC2)cc1 [Astemizole], the TdP risks [1] is listed as “known TdP risks” and the arrhythmias ([1]; in vivo) is listed as “fatal arrythmias”.
In the case of CC[C@H]1OC(=O)[C@H](C)[C@@H](O[C@H]2C[C@@](C)(OC)[C@@H](O)[C@H](C)O2)[C@H](C)[C@@H](O[C@@H]2O[C@H](C)C[C@H](N(C)C)[C@H]2O)[C@](C)(O)C[C@@H](C)CN(C)[C@H](C)[C@@H](O)[C@]1(C)O [Azithromycin], the “hERG IC50” value ([2]; NPC qHTS in-house database) is given as “Inactive” and the hERG inhibition ([2]; in words, screening data) is given as “no hERG inhibition”.
For CCN(CC)CCCC(C)Nc1ccnc2cc(Cl)ccc12 (stereo not drawn) [Chloroquine], the EC50 [3] is given as 11 µM.
In the case of CN(C)CCCN1c2ccccc2Sc2ccc(Cl)cc21 [Chlorpromazine], the EC50 [3] is listed as 10 µM, the “viral replication of SARS-CoV-1” value [4] is listed as “inhibit in vitro viral replication” and the TdP risks ([1]; in vivo) is listed as “known TdP risks”. For the same compound, the “viral replication of MERS-CoV” value [5] was “inhibit in vitro viral replication” and the hERG liability [6, 10] was “high (high (curve rank > 4.0))”.
For NC(N)=Nc1nc(CSCCC(N)=NS(N)(=O)=O)cs1 [Famotidine], the clinical outcomes [7] is given as “improved clinical outcomes” and the “SARS-CoV-2 CPE EC50” value [8] is given as “Inactive”.
For NC(=O)c1nc(F)c[nH]c1=O [Favipiravir], the “SARS-CoV-2 CPE EC50” value [8] is given as “Inactive”.
In the case of CCN(CCO)CCCC(C)Nc1ccnc2cc(Cl)ccc12 (stereo not drawn) [Hydroxychloroquine sulfate], the “SARS-CoV-2 CPE EC50” value [8] is given as “Inactive” and the “hERG IC50” value ([2]; NPC qHTS in-house database) is given as “Inactive”.
In the case of CC[C@@H](C)[C@H]1O[C@]2(CC[C@@H]1C)C[C@@H]1C[C@@H](C/C=C(\C)[C@@H](O[C@H]3C[C@H](OC)[C@@H](O[C@H]4C[C@H](OC)[C@@H](O)[C@H](C)O4)[C@H](C)O3)[C@@H](C)/C=C/C=C3\CO[C@@H]4[C@H](O)C(C)=C[C@@H](C(=O)O1)[C@]34O)O2 [Ivermectin], the EC50 [3] is listed as 17 µM, the IC50 ([2]; read-out: hERG IC50, NPC qHTS in-house database) is listed as 9.7 µM and the hERG liability [6, 10] is listed as “moderate”.
For O=C(Nc1ccc([N+](=O)[O-])cc1Cl)c1cc(Cl)ccc1O [Niclosamide], the EC50 [3] is given as 1 µM, the “activity in the autophagy assay” value [9] is given as “moderate activity” and the “hERG IC50” value ([2]; NPC qHTS in-house database) is given as “Inactive”.
In the case of CC(=O)Oc1ccccc1C(=O)Nc1ncc([N+](=O)[O-])s1 [Nitazoxanide], the “activity in the autophagy assay” value [9] is listed as “no activity”, the “activity in the CPE assay” value ([8]; in words, screening data) is listed as “moderate activity” and the “hERG IC50” value ([2]; NPC qHTS in-house database) is listed as “Inactive”.
For O=C(CCCN1CCC(O)(c2ccc(Cl)cc2)CC1)c1ccc(F)cc1 [haloperidol], the hERG liability [6] was “high (key: low (curve rank < 1.0); medium (curve rank between 1.0 and 4.0); high (curve rank > 4.0))”.
In the case of CN1CCCCC1CCN1c2ccccc2Sc2ccc([S+](C)[O-])cc21 (stereo not drawn) [mesoridazine], the TdP risks ([1]; in vivo) is given as “known TdP risks” and the hERG liability [6] is given as “high (key: low (curve rank < 1.0); medium (curve rank between 1.0 and 4.0); high (curve rank > 4.0))”.
